Test results reported in patent US10160747B2, “Compounds and methods for kinase modulation, and indications therefor” (Plexxikon Inc., priority 2016, dated 2018).

Legend:
[1] = biological target: T1, BA/F3-FLT3-ITD + D835Y (Homo sapiens, UniProt P36888, D835Y, cells depend on it, form not given); test: Engineered BA/F3 cell growth assay, FLT3 ITD/D835Y; format: cell-based, murine; conditions: 3 d growth
T1 sequence (P36888 with tags, fused parts or gaps INS600HVDFREYEYD/D835Y): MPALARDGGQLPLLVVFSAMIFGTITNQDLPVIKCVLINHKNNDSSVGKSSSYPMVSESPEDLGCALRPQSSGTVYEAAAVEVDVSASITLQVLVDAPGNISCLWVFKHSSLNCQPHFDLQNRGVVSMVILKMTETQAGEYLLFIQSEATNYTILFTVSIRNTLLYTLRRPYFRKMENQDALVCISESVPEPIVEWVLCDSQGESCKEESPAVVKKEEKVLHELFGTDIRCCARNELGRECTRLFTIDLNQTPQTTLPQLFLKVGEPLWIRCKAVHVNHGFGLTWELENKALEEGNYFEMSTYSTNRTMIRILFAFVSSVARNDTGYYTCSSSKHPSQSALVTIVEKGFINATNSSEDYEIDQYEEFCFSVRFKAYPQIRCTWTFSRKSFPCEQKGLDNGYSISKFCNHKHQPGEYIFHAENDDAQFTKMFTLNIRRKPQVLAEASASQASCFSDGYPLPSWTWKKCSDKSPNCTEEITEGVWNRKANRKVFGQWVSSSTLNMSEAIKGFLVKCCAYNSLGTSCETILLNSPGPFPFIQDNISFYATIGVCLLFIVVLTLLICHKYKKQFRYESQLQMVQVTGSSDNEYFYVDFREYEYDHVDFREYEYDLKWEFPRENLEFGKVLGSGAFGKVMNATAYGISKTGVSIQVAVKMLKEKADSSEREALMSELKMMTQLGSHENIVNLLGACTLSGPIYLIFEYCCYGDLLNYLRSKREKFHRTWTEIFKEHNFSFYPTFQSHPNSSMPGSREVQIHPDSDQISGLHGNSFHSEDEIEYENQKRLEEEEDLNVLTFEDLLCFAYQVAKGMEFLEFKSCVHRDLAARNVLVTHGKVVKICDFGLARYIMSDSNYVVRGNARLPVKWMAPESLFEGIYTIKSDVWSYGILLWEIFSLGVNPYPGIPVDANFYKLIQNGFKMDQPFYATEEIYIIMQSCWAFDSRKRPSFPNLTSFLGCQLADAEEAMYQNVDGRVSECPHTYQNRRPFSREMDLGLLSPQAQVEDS
Method in brief: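 IC50 derived from CellTiter-Glo ATP luminescence after 3 days at 37 °C, 5% CO2, over eight 1:3 dilutions from 1 μM (0.2% DMSO final). Cells: IL-3-independent murine Ba/F3 expressing full-length FLT3 ITD/D835Y, 1×10^4 per well.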

[2] = tested on: MOLM-14 F691L (endogenous FLT3 ITD and transfected FLT3 F691L); test: MOLM-14 F691L cell proliferation assay (CellTiter-Glo); format: cell-based; conditions: Homo sapiens, MOLM-14, 72 h; 3 d growth, GMean
Method in brief: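 Three-day proliferation at 37 °C/5% CO2 of FLT3-ITD MOLM-14 lines with D835Y or F691L mutation, seeded 1×10^4 per well. Compounds at eight points, top 1 μM final, 0.2% DMSO. ATP luminescence (CellTiter-Glo) gives IC50.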

Structure (SMILES) | GI50 [1] [µM] | IC50 [2] [µM]
COc1ncc(NC(=O)Cc2ccc(-c3cnc(Nc4cn[nH]c4)nc3)cc2)cc1C(F)(F)F [Compound P-0025, N-[6-methoxy-5-(trifluoromethyl)-3-pyridyl]-2-[4-[2-(1H-pyrazol-4-ylamino)pyrimidin-5-yl]phenyl]acetamide] | 0.0001 to 10 | 0.0001 to 10
O=C(Cc1ccc(-c2cnc3[nH]c(Cl)cc3c2)cc1F)Nc1ccnc(C(F)(F)F)c1 [Compound P-0030, 2-[4-(2-chloro-1H-pyrrolo[2,3-b]pyridin-5-yl)-2-fluoro-phenyl]-N-[2-(trifluoromethyl)-4-pyridyl]acetamide] | 0.0001 to 10 | 0.0001 to 10
O=C(Cc1ccc(-c2cnc3[nH]cc(C(=O)C4CC4)c3c2)cc1F)Nc1ccnc(C(F)(F)F)c1 [Compound P-0032, 2-[4-[3-(cyclopropanecarbonyl)-1H-pyrrolo[2,3-b]pyridin-5-yl]-2-fluoro-phenyl]-N-[2-(trifluoromethyl)-4-pyridyl]acetamide] | 0.0001 to 10 | 0.0001 to 10
COc1ncc(NC(=O)Cc2ccc(-c3cnc4[nH]c(Cl)cc4c3)cc2F)cc1C(F)(F)F [Compound P-0038, 2-[4-(2-chloro-1H-pyrrolo[2,3-b]pyridin-5-yl)-2-fluoro-phenyl]-N-[6-methoxy-5-(trifluoromethyl)-3-pyridyl]acetamide] | 0.0001 to 10 | 0.0001 to 10
O=C(Cc1ccc(-c2cnc3[nH]cc(F)c3c2)cc1F)Nc1ccnc(C(F)(F)F)c1 [Compound P-0029, 2-[2-fluoro-4-(3-fluoro-1H-pyrrolo[2,3-b]pyridin-5-yl)phenyl]-N-[2-(trifluoromethyl)-4-pyridyl]acetamide] | 0.0001 to 10 | 
CC(C)(C)c1ccc(NC(=O)Cc2ccc(-c3cnc4[nH]cc(F)c4c3)cc2F)cn1 [Compound P-0043, N-(6-tert-butyl-3-pyridyl)-2-[2-fluoro-4-(3-fluoro-1H-pyrrolo[2,3-b]pyridin-5-yl)phenyl]acetamide] | 0.0001 to 10 | 0.0001 to 10
CC(=O)c1c[nH]c2ncc(-c3ccc(CC(=O)Nc4ccnc(C(F)(F)F)c4)c(F)c3)cc12 [Compound P-0031, 2-(4-(3-acetyl-1H-pyrrolo[2,3-b]pyridin-5-yl)-2-fluorophenyl)-N-(2-(trifluoromethyl)pyridin-4-yl)acetamide] | 0.0001 to 10 | 
COc1ncc(NC(=O)Cc2cc(F)c(-c3cnc4[nH]c(Cl)cc4c3)cc2F)cc1C(F)(F)F [Compound P-0045, 2-[4-(2-chloro-1H-pyrrolo[2,3-b]pyridin-5-yl)-2,5-difluoro-phenyl]-N-[6-methoxy-5-(trifluoromethyl)-3-pyridyl]acetamide] | 0.0001 to 10 | 
COc1ncc(NC(=O)Cc2ccc(-c3cnc4[nH]c(Cl)cc4c3)c(F)c2)cc1C(F)(F)F [Compound P-0046, 2-[4-(2-chloro-1H-pyrrolo[2,3-b]pyridin-5-yl)-3-fluoro-phenyl]-N-[6-methoxy-5-(trifluoromethyl)-3-pyridyl]acetamide] | 0.0001 to 10 | 
Cc1cc(CC(=O)Nc2cccc(C(F)(F)F)c2)ccc1-c1cnc2[nH]c(-c3ccccc3)cc2c1 [Compound P-0002, 2-[3-methyl-4-(2-phenyl-1H-pyrrolo[2,3-b]pyridin-5-yl)phenyl]-N-[3-(trifluoromethyl)phenyl]acetamide] | 0.0001 to 10 | 
COc1ncc(NC(=O)Cc2ccc(-c3cnc4[nH]cc(C(=O)C5CC5)c4c3)cc2F)cc1C(F)(F)F [Compound P-0036, 2-[4-[3-(cyclopropanecarbonyl)-1H-pyrrolo[2,3-b]pyridin-5-yl]-2-fluoro-phenyl]-N-[6-methoxy-5-(trifluoromethyl)-3-pyridyl]acetamide] | 0.0001 to 10 | 

Results, then the compound that gave them:

GI50 [1] [µM] | IC50 [2] [µM] | Structure (SMILES)
0.0001 to 10 | 0.0001 to 10 | Cc1ncc(NC(=O)Cc2ccc(-c3cnc4[nH]c(Cl)cc4c3)cc2F)cc1C(F)(F)F [Compound P-0067, 2-[4-(2-chloro-1H-pyrrolo[2,3-b]pyridin-5-yl)-2-fluoro-phenyl]-N-[6-methyl-5-(trifluoromethyl)-3-pyridyl]acetamide]
0.0001 to 10 | 0.0001 to 10 | Cn1cc(Nc2ncc(-c3ccc(CC(=O)Nc4ccnc(C(F)(F)F)c4)c(F)c3)cn2)cn1 [Compound P-0083, 2-[2-fluoro-4-[2-[(1-methylpyrazol-4-yl)amino]pyrimidin-5-yl]phenyl]-N-[2-(trifluoromethyl)-4-pyridyl]acetamide]
0.0001 to 10 | 0.0001 to 10 | O=C(Cc1ccc(-c2cnc(Nc3cnn4ccccc34)nc2)cc1F)Nc1cncc(C(F)(F)F)c1 [Compound P-0058, 2-[2-fluoro-4-[2-(pyrazolo[1,5-a]pyridin-3-ylamino)pyrimidin-5-yl]phenyl]-N-[5-(trifluoromethyl)-3-pyridyl]acetamide]
0.0001 to 10 | 0.0001 to 10 | O=C(Cc1ccc(-c2cnc3[nH]cc(Cl)c3n2)cc1F)Nc1cnc(Cl)c(C(F)(F)F)c1 [Compound P-0060, 2-[4-(7-chloro-5H-pyrrolo[2,3-b]pyrazin-2-yl)-2-fluoro-phenyl]-N-[6-chloro-5-(trifluoromethyl)-3-pyridyl]acetamide]
0.0001 to 10 | 0.0001 to 10 | COc1ncc(NC(=O)Cc2ccc(-c3cnc(Nc4cnn(C)c4)nc3)cc2F)cc1C(F)(F)F [Compound P-0089, 2-[2-fluoro-4-[2-[(1-methylpyrazol-4-yl)amino]pyrimidin-5-yl]phenyl]-N-[6-methoxy-5-(trifluoromethyl)-3-pyridyl]acetamide]
0.0001 to 10 | 0.0001 to 10 | Cc1ncc(NC(=O)Cc2ccc(-c3cnc(Nc4cnn(C)c4C)nc3)cc2F)cc1C(F)(F)F [Compound P-0076, 2-[4-[2-[(1,5-dimethylpyrazol-4-yl)amino]pyrimidin-5-yl]-2-fluoro-phenyl]-N-[6-methyl-5-(trifluoromethyl)-3-pyridyl]acetamide]
0.0001 to 10 |  | O=C(Cc1ccc(-c2cnc3c(c2)C2(CC2)C(=O)N3)cc1F)Nc1cncc(C(F)(F)F)c1 [Compound P-0064, 2-(2-fluoro-4-(2′-oxo-1′,2′-dihydrospiro[cyclopropane-1,3′-pyrrolo[2,3-b]pyridin]-5′-yl)phenyl)-N-(5-(trifluoromethyl)pyridin-3-yl)acetamide]
0.0001 to 10 |  | Cn1cnc(Nc2ncc(-c3ccc(CC(=O)Nc4cc(C(C)(F)F)ccn4)cc3F)cn2)c1 [Compound P-0171, N-[4-(1,1-difluoroethyl)-2-pyridyl]-2-[3-fluoro-4-[2-[(1-methylimidazol-4-yl)amino]pyrimidin-5-yl]phenyl]acetamide]
0.0001 to 10 |  | COc1ncc(NC(=O)Cc2ccc(-c3cnc4[nH]cc(F)c4c3)c(F)c2)cc1C(F)(F)F [Compound P-0048, 2-[3-fluoro-4-(3-fluoro-1H-pyrrolo[2,3-b]pyridin-5-yl)phenyl]-N-[6-methoxy-5-(trifluoromethyl)-3-pyridyl]acetamide]
0.0001 to 10 |  | O=C(Cc1cc(F)c(-c2cnc(Nc3cnn4ccccc34)nc2)cc1F)Nc1cncc(C(F)(F)F)c1 [Compound P-0075, 2-[2,5-difluoro-4-[2-(pyrazolo[1,5-a]pyridin-3-ylamino)pyrimidin-5-yl]phenyl]-N-[5-(trifluoromethyl)-3-pyridyl]acetamide]
0.0001 to 10 |  | COc1ncc(NC(=O)Cc2cc(F)c(-c3cnc4[nH]cc(F)c4c3)cc2F)cc1C(F)(F)F [Compound P-0051, 2-[2,5-difluoro-4-(3-fluoro-1H-pyrrolo[2,3-b]pyridin-5-yl)phenyl]-N-[6-methoxy-5-(trifluoromethyl)-3-pyridyl]acetamide]
